These results are taken from patent US9445594B2, “Molecules having certain pesticidal utilities, intermediates, compositions, and processes, related thereto” (priority 2014, dated 2016).

Where two headings read alike, the source gives them in different places.

What all share (type): in vivo
In data set [1] the test system is Cabbage Looper (Trichoplusia ni, TRIPNI) ("CL"). The data set can be described thus: Bioassays on CL, 128-well diet tray assay. The conditions noted are these: 168 h, read-out: CL % Control (or Mortality) rating. The procedure: (§1) Certain molecules disclosed in this document were tested against BAW, CEW, and CL using procedures described in the following examples. In the reporting of the results, the “BAW, CEW, & CL Rating Table” was used (See Table Section).
Bioassays on CL were conducted using a 128-well diet tray assay. one to five second instar CL larvae were placed in each well (3 mL) of the diet tray that had been previously filled with 1 mL of artificial diet to which 50 μg/cm^2 of the test compound (dissolved in 50 μL of 90:10 acetone-water mixture) had been applied (to each of eight wells) and then allowed to dry. Trays were covered with a clear self-adhesive cover and held at 25° C., 14:10 light-dark for five to seven days. Percent mortality was recorded for the larvae in each well; activity in the eight wells was then averaged. The results are indicated in the table entitled “Table ABC: Biological Results” (See Table Section).

For data set [2], the system named is Beet Armyworm (Spodoptera exigua, LAPHEG) ("BAW"). As to the kind of experiment: Bioassays on BAW, 128-well diet tray assay. The conditions noted are these: 168 h, read-out: BAW % Control (or Mortality) rating. The procedure:
as §1
Bioassays on BAW were conducted using a 128-well diet tray assay. one to five second instar BAW larvae were placed in each well (3 mL) of the diet tray that had been previously filled with 1 mL of artificial diet to which 50 μg/cm^2 of the test compound (dissolved in 50 μL of 90:10 acetone-water mixture) had been applied (to each of eight wells) and then allowed to dry. Trays were covered with a clear self-adhesive cover and held at 25° C., 14:10 light-dark for five to seven days. Percent mortality was recorded for the larvae in each well; activity in the eight wells was then averaged. The results are indicated in the table entitled “Table ABC: Biological Results” (See Table Section).

In data set [3] the test system is Yellow Fever Mosquito (Aedes aegypti, AEDSAE) ("YFM"). As to the kind of experiment: Bioassays on YFM, 96-well plate larval assay. The following applies: about 1 day-old larvae, from 4000 ppm DMSO master plate diluted, room temperature, scored after 3 days. Here is the method: Certain molecules disclosed in this document were tested against YFM using procedures described in the following paragraph. In the reporting of the results, the “YFM Rating Table” was used (See Table Section).
Master plates containing 400 μg of a molecule dissolved in 100 μL of dimethyl sulfoxide (DMSO) (equivalent to a 4000 ppm solution) are used. A master plate of assembled molecules contains 15 μL per well. To this plate, 135 μL of a 90:10 water:acetone mixture is added to each well. A robot (Biomek® NXP Laboratory Automation Workstation) is programmed to dispense 15 μL aspirations from the master plate into an empty 96-well shallow plate (“daughter” plate). There are 6 reps (“daughter” plates) created per master. The created daughter plates are then immediately infested with YFM larvae.
The day before plates are to be treated, mosquito eggs are placed in Millipore water containing liver powder to begin hatching (4 g. into 400 mL). After the daughter plates are created using the robot, they are infested with 220 μL of the liver powder/larval mosquito mixture (about 1 day-old larvae). After plates are infested with mosquito larvae, a non-evaporative lid is used to cover the plate to reduce drying. Plates are held at room temperature for 3 days prior to grading. After 3 days, each well is observed and scored based on mortality.

Setting [4] is: second instar larvae, 50 μg/cm^2 on artificial diet, 25° C., five to seven days, average of eight wells.

In the case of `C=C(C)c1ccccc1NC(=O)Nc1ccc(-c2ncn(-c3ccc(OC(F)(F)F)cc3)n2)cc1` [F61, 1-(2-(Prop-1-en-2-yl)phenyl)-3-(4-(1-(4-(trifluoromethoxy)phenyl)-1H-1,2,4-triazol-3-yl)phenyl)urea], the mortality at 50 µg/cm2 in data set [1] (setting [4]) and in data set [2] (setting [4]) was 50 to 100% throughout. For the same compound, the “YFM % Control (or Mortality) rating” value in data set [3] is “D (No activity noticed in this bioassay)”.

Regarding `COc1cccc(NC(=O)NCCCc2ccc(-c3ncn(-c4ccc(OC(F)(F)F)cc4)n3)cc2)c1` [F80, 1-(3-Methoxyphenyl)-3-(3-(4-(1-(4-(trifluoromethoxy)phenyl)-1H-1,2,4-triazol-3-yl)phenyl)propyl)urea], the mortality at 50 µg/cm2 in data set [1] (setting [4]) and in data set [2] (setting [4]) was 50 to 100% in each case. In addition, the “YFM % Control (or Mortality) rating” value in data set [3] is recorded as “A (80-100)”.

Take `CCc1ccccc1NC(=O)NCCCCc1ccc(-c2ncn(-c3ccc(OC(F)(F)F)cc3)n2)cc1` [F98, 1-(2-Ethylphenyl)-3-(4-(4-(1-(4-(trifluoromethoxy)phenyl)-1H-1,2,4-triazol-3-yl)phenyl)butyl)urea]: the mortality at 50 µg/cm2 in data set [1] (setting [4]) is 0%; in data set [2] (setting [4]) it was 0 to 50%. In data set [3], the “YFM % Control (or Mortality) rating” value is “D (No activity noticed in this bioassay)”.

In the case of `COc1ccccc1NC(=O)NCc1ccc(-c2ncn(-c3ccc(OC(F)(F)F)cc3)n2)cc1` [F106, 1-(2-Methoxyphenyl)-3-(4-(1-(4-(trifluoromethoxy)phenyl)-1H-1,2,4-triazol-3-yl)benzyl)urea], the mortality at 50 µg/cm2 in data set [1] (setting [4]) and in data set [2] (setting [4]) was 0% in each case. For the same compound, in data set [3], the “YFM % Control (or Mortality) rating” value was “D (No activity noticed in this bioassay)”.

Regarding `Cc1ccc(NC(=O)NCc2ccc(-c3ncn(-c4ccc(OC(F)(F)F)cc4)n3)cc2)cc1` [F102, 1-(p-Tolyl)-3-(4-(1-(4-(trifluoromethoxy)phenyl)-1H-1,2,4-triazol-3-yl)benzyl)urea], the mortality at 50 µg/cm2 in data set [1] (setting [4]) and in data set [2] (setting [4]) was 0% in each case. Moreover, the “YFM % Control (or Mortality) rating” value in data set [3] is given as “D (No activity noticed in this bioassay)”.

Regarding `FC(F)(F)Oc1ccc(-n2cnc(-c3ccc(NC(=S)Nc4ccccc4-c4ccccc4)cc3)n2)cc1` [F47, 1-([1,1′-Biphenyl]-2-yl)-3-(4-(1-(4-(trifluoromethoxy)phenyl)-1H-1,2,4-triazol-3-yl)phenyl)thiourea], the mortality at 50 µg/cm2 in data set [1] (setting [4]) is 50 to 100%; in data set [2] (setting [4]) it was 0%. In data set [3], the “YFM % Control (or Mortality) rating” value is recorded as “D (No activity noticed in this bioassay)”.

Take `Cc1cccc(NC(=O)NCc2ccc(-c3ncn(-c4ccc(OC(F)(F)F)cc4)n3)cc2)c1` [F108, 1-(m-Tolyl)-3-(4-(1-(4-(trifluoromethoxy)phenyl)-1H-1,2,4-triazol-3-yl)benzyl)urea]: the mortality at 50 µg/cm2 in data set [1] (setting [4]) and in data set [2] (setting [4]) was 0% each time. In addition, in data set [3], the “YFM % Control (or Mortality) rating” value is “D (No activity noticed in this bioassay)”.

`CC(C)c1ccccc1NC(=O)NCCCCc1ccc(-c2ncn(-c3ccc(OC(F)(F)F)cc3)n2)cc1` [F90, 1-(2-Isopropylphenyl)-3-(4-(4-(1-(4-(trifluoromethoxy)phenyl)-1H-1,2,4-triazol-3-yl)phenyl)butyl)urea]: the mortality at 50 µg/cm2 in data set [1] (setting [4]) and in data set [2] (setting [4]) was 0% each time. In data set [3], the “YFM % Control (or Mortality) rating” value is “D (No activity noticed in this bioassay)”.

Turning to `COc1ccccc1NC(=O)NCCCc1ccc(-c2ncn(-c3ccc(OC(F)(F)F)cc3)n2)cc1` [F81, 1-(2-Methoxyphenyl)-3-(3-(4-(1-(4-(trifluoromethoxy)phenyl)-1H-1,2,4-triazol-3-yl)phenyl)propyl)urea], the mortality at 50 µg/cm2 in data set [1] (setting [4]) and in data set [2] (setting [4]) was 50 to 100% throughout. In addition, the “YFM % Control (or Mortality) rating” value in data set [3] is on record as “B (More than 0 - Less than 80)”.

Turning to `Cc1ccc(NC(=O)NCCCCc2ccc(-c3ncn(-c4ccc(OC(F)(F)F)cc4)n3)cc2)cc1` [F99, 1-(p-Tolyl)-3-(4-(4-(1-(4-(trifluoromethoxy)phenyl)-1H-1,2,4-triazol-3-yl)phenyl)butyl)urea], the mortality at 50 µg/cm2 in data set [1] (setting [4]) was 0%; in data set [2] (setting [4]), 0 to 50%. The “YFM % Control (or Mortality) rating” value in data set [3] is on record as “D (No activity noticed in this bioassay)”.

In the case of `O=C(Nc1ccc(-c2ncn(-c3ccc(OC(F)(F)F)cc3)n2)cc1)Nc1ccccc1C(F)(F)F` [F64, 1-(4-(1-(4-(trifluoromethoxy)phenyl)-1H-1,2,4-triazol-3-yl)phenyl)-3-(2-(trifluoromethyl)phenyl)urea], the mortality at 50 µg/cm2 in data set [1] (setting [4]) and in data set [2] (setting [4]) was 50 to 100% each time. In data set [3], the “YFM % Control (or Mortality) rating” value is reported as “B (More than 0 - Less than 80)”.

For the compound `O=C(Nc1ccc(-c2ncn(-c3ccc(OC(F)(F)F)cc3)n2)cc1)Nc1ccccc1C1CC1C1CC1` (stereo not drawn) [F49, 1-(2-([1,1′-Bi(cyclopropan)]-2-yl)phenyl)-3-(4-(1-(4-(trifluoromethoxy)phenyl)-1H-1,2,4-triazol-3-yl)phenyl)urea], the values for the mortality at 50 µg/cm2 in data set [1] (setting [4]) and in data set [2] (setting [4]) were 50 to 100% and 0 to 50%, respectively. Besides, in data set [3], the “YFM % Control (or Mortality) rating” value was “D (No activity noticed in this bioassay)”.

`O=C(NCCCCc1ccc(-c2ncn(-c3ccc(OC(F)(F)F)cc3)n2)cc1)Nc1ccc(Cl)cc1` [F94, 1-(4-Chlorophenyl)-3-(4-(4-(1-(4-(trifluoromethoxy)phenyl)-1H-1,2,4-triazol-3-yl)phenyl)butyl)urea]: the values for the mortality at 50 µg/cm2 in data set [1] (setting [4]) and in data set [2] (setting [4]) were 50 to 100% and 0%, respectively. Further, the “YFM % Control (or Mortality) rating” value in data set [3] is listed as “D (No activity noticed in this bioassay)”.

For the compound `O=C(NCc1ccc(-c2ncn(-c3ccc(OC(F)(F)F)cc3)n2)cc1)Nc1cccc(Cl)c1` [F103, 1-(3-Chlorophenyl)-3-(4-(1-(4-(trifluoromethoxy)phenyl)-1H-1,2,4-triazol-3-yl)benzyl)urea], the mortality at 50 µg/cm2 in data set [1] (setting [4]) lay within 50 to 100%; in data set [2] (setting [4]) it was 0 to 50%. Also, the “YFM % Control (or Mortality) rating” value in data set [3] is recorded as “A (80-100)”.

On to `O=C(Nc1ccc(-c2ncn(-c3ccc(OC(F)(F)F)cc3)n2)cc1)Nc1ccccc1-c1cc(F)c(F)c(F)c1` [F9, 1-(3′,4′,5′-Trifluoro-[1,1′-biphenyl]-2-yl)-3-(4-(1-(4-(trifluoromethoxy)phenyl)-1H-1,2,4-triazol-3-yl)phenyl)urea], for which the mortality at 50 µg/cm2 in data set [1] (setting [4]) and in data set [2] (setting [4]) was 50 to 100% in each case. In data set [3], the “YFM % Control (or Mortality) rating” value was “D (No activity noticed in this bioassay)”.

Take `O=C(Nc1ccc(-c2ncn(-c3ccc(OC(F)(F)C(F)(F)F)cc3)n2)cc1)Nc1ccccc1C1CC1` [F15, 1-(2-Cyclopropylphenyl)-3-(4-(1-(4-(perfluoroethoxy)phenyl)-1H-1,2,4-triazol-3-yl)phenyl)urea]: the mortality at 50 µg/cm2 in data set [1] (setting [4]) and in data set [2] (setting [4]) was 50 to 100% throughout. For the same compound, the “YFM % Control (or Mortality) rating” value in data set [3] is on record as “B (More than 0 - Less than 80)”.

As to `CC(C)c1ccccc1NC(=S)NCCCc1ccc(-c2ncn(-c3ccc(OC(F)(F)F)cc3)n2)cc1` [F76, 1-(2-isopropylphenyl)-3-(3-(4-(1-(4-(trifluoromethoxy)phenyl)-1H-1,2,4-triazol-3-yl)phenyl)propyl)thiourea], the mortality at 50 µg/cm2 in data set [1] and in data set [2] was 50 to 100% each time. For the same compound, the “YFM % Control (or Mortality) rating” value in data set [3] is on record as “A (80-100)”.

Regarding `COc1ccccc1NC(=O)NCCCCc1ccc(-c2ncn(-c3ccc(OC(F)(F)F)cc3)n2)cc1` [F95, 1-(2-Methoxyphenyl)-3-(4-(4-(1-(4-(trifluoromethoxy)phenyl)-1H-1,2,4-triazol-3-yl)phenyl)butyl)urea], the values for the mortality at 50 µg/cm2 in data set [1] (setting [4]) and in data set [2] (setting [4]) were 50 to 100% and 0%, respectively. Moreover, the “YFM % Control (or Mortality) rating” value in data set [3] is on record as “D (No activity noticed in this bioassay)”.

Usually mortality stands for the percentage killed.
